US11576906B2, “Inhibiting mutant IDH-1” (FORMA Therapeutics, Inc., priority 2018, dated 2023)

Test: Brain distribution after 6 hour intravenous infusion in Sprague Dawley rats
Type: in vivo
Details: rat, brain/plasma, 7.5 mg/kg 6 hour intravenous infusion

SMILES | Kp uu at 6 h
N#Cc1ccnc(N2C(=O)CC[C@H]2C(=O)N(c2cncc(F)c2)[C@H](C(=O)NC2CC(F)(F)C2)c2ccccc2Cl)c1 [AG-120] | 0.01
C[C@@H](Nc1nc(N[C@H](C)C(F)(F)F)nc(-c2cccc(Cl)n2)n1)C(F)(F)F [AG-881] | 0.5
